For assay [1], the target named is JH2 domain of human Tyk2 (Homo sapiens (Human), UniProt P29597). As to the kind of experiment: JH2 Biochemical Assay (TR-FRET probe displacement). Conditions: TR-FRET probe displacement, JH2 domain. The class given is binding. (In general: In TR-FRET formats the signal depends on donor and acceptor labels being close together.)
For assay [2], the target named is Tyk2 (Homo sapiens (Human), UniProt P29597). As to the kind of experiment: pSTAT4 Cell Assay (MSD, NK92 cells). Type of assay: cell-based.
Chain of Tyk2 (P29597 whole entry): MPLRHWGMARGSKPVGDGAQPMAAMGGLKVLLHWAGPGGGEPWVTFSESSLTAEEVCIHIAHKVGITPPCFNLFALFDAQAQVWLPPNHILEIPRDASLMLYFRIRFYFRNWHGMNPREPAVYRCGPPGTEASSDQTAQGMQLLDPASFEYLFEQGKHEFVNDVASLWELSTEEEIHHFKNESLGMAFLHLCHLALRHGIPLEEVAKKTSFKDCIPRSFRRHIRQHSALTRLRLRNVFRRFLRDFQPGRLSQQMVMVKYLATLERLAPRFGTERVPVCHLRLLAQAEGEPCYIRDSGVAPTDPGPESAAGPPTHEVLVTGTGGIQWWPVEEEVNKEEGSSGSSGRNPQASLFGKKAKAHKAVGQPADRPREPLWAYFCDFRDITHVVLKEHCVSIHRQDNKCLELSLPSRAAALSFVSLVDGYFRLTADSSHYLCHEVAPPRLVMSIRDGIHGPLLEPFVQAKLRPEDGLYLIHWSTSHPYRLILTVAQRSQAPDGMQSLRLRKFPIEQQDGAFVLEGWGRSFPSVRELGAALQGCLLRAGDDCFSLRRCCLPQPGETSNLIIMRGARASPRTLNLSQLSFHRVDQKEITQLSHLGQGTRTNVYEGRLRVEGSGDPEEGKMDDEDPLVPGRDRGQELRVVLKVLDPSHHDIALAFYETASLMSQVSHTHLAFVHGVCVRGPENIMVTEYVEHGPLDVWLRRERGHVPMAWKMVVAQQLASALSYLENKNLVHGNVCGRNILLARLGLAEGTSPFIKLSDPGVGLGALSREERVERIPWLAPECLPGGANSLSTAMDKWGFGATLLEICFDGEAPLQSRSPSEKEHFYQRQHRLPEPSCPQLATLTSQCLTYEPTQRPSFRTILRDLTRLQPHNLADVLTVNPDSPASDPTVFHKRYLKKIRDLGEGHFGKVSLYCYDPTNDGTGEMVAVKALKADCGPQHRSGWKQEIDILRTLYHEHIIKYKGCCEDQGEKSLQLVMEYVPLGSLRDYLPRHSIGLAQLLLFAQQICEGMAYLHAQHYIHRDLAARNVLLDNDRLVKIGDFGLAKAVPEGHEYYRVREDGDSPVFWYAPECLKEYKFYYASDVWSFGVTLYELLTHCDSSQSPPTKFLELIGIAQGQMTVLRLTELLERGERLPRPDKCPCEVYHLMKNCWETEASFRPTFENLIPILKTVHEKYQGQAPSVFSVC

Each structure is given as a SMILES string. pIC50: −log10 of the molar value. Some results are limits rather than exact numbers.

In patent publication US20260028365A1 (BIOGEN MA INC., priority 2022, published 2026) one finds IC50 data, which are given here for 27 compounds.

Chain of JH2 domain of human Tyk2 (P29597 575-876): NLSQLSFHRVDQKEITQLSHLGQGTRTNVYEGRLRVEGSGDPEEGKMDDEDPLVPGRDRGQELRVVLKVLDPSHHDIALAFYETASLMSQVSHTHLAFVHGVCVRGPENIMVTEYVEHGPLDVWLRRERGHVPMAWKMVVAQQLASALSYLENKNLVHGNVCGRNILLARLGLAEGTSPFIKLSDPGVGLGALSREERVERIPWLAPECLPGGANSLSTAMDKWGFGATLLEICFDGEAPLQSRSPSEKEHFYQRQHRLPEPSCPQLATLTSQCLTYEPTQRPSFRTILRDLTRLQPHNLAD

Usually pIC50 stands for the negative decadic logarithm of the IC50, by convention in mol/L. Low values mean a large IC50, high ones a small IC50. Take `CC(=O)Nc1cc(Nc2ccnc(C(C)(F)F)n2)c(-c2ccc(OC(F)F)nn2)cn1` [Example 858, N-(4-((2-(1,1-difluoroethyl)pyrimidin-4-yl)amino)-5-(6-(difluoromethoxy)pyridazin-3-yl)pyridin-2-yl)acetamide]: the figures for the pIC50 in assay [1] and in assay [2] were at least 8.00 and 7.00 to 8.00, respectively.
The like results for `CCc1cc(Nc2cc(NC(C)=O)ncc2-c2cnc(NC)cn2)nc(C(C)(F)F)n1` [Example 860, N-(4-((2-(1,1-difluoroethyl)-6-ethylpyrimidin-4-yl)amino)-5-(5-(methylamino)pyrazin-2-yl)pyridin-2-yl)acetamide] were, in that order, 6.00 to 7.00 and at most 6.00.
For the compound `CCc1cc(Nc2cc(NC(C)=O)ncc2-c2ccc(N(C)C)nn2)nc(C(C)(F)F)n1` [Example 862, N-(4-((2-(1,1-difluoroethyl)-6-ethylpyrimidin-4-yl)amino)-5-(6-(dimethylamino)pyridazin-3-yl)pyridin-2-yl)acetamide], the pIC50 in assay [1] and in assay [2] was at least 8.00 each time.
As for `CCc1cc(Nc2cc(NC(C)=O)ncc2-c2ccc(N3CCOCC3)nn2)nc(C(C)(F)F)n1` [Example 863, N-(4-((2-(1,1-difluoroethyl)-6-ethylpyrimidin-4-yl)amino)-5-(6-morpholinopyridazin-3-yl)pyridin-2-yl)acetamide], the pIC50 in assay [1] and in assay [2] was at least 8.00 in each case.
Take `CCc1cc(Nc2cc(NC(C)=O)ncc2-c2cnc(C#N)cn2)nc(C(C)(F)F)n1` [Example 864, N-(5-(5-cyanopyrazin-2-yl)-4-((2-(1,1-difluoroethyl)-6-ethylpyrimidin-4-yl)amino)pyridin-2-yl)acetamide]: the pIC50 was at least 8.00 in assay [1] and 7.00 to 8.00 in assay [2].
The like results for `CCc1cc(Nc2cc(NC(C)=O)ncc2-c2ccc(=O)n(C)n2)nc(C(C)(F)F)n1` [Example 865, N-(4-((2-(1,1-difluoroethyl)-6-ethylpyrimidin-4-yl)amino)-5-(1-methyl-6-oxo-1,6-dihydropyridazin-3-yl)pyridin-2-yl)acetamide] were, in that order, at least 8.00 and 7.00 to 8.00.
The like results for `COCCN(C)c1cnc(-c2cnc(NC(C)=O)cc2Nc2ccnc(C(C)(F)F)n2)cn1` [Example 866, N-(4-((2-(1,1-difluoroethyl)pyrimidin-4-yl)amino)-5-(5-((2-methoxyethyl)(methyl)amino)pyrazin-2-yl)pyridin-2-yl)acetamide] were, in that order, at least 8.00 and 7.00 to 8.00.
On the same counts, the results for `COC1CCN(c2cnc(-c3cnc(NC(C)=O)cc3Nc3ccnc(C(C)(F)F)n3)cn2)C1` (stereo not drawn) [Example 867, N-(4-((2-(1,1-difluoroethyl)pyrimidin-4-yl)amino)-5-(5-(3-methoxypyrrolidin-1-yl)pyrazin-2-yl)pyridin-2-yl)acetamide] are at least 8.00 and 7.00 to 8.00.
As for `COC1(C)CN(c2cnc(-c3cnc(NC(C)=O)cc3Nc3ccnc(C(C)(F)F)n3)cn2)C1` [Example 868, N-(4-((2-(1,1-difluoroethyl)pyrimidin-4-yl)amino)-5-(5-(3-methoxy-3-methylazetidin-1-yl)pyrazin-2-yl)pyridin-2-yl)acetamide], the results for the pIC50 in assay [1] and in assay [2] were at least 8.00 and 7.00 to 8.00, respectively.
On the same counts, the results for `CC(=O)Nc1cc(Nc2ccnc(C(C)(F)F)n2)c(-c2cnc(N3CCC4(COC4)C3)cn2)cn1` [Example 869, N-(5-(5-(2-oxa-6-azaspiro[3.4]octan-6-yl)pyrazin-2-yl)-4-((2-(1,1-difluoroethyl)pyrimidin-4-yl)amino)pyridin-2-yl)acetamide] are 7.00 to 8.00 and 6.00 to 7.00.
The like results for `CC(=O)Nc1cc(Nc2ccnc(C(C)(F)F)n2)c(-c2cnc(N3C[C@@H]4C[C@H]3CO4)cn2)cn1` [Example 870, N-(5-(5-((1S,4S)-2-oxa-5-azabicyclo[2.2.1]heptan-5-yl)pyrazin-2-yl)-4-((2-(1,1-difluoroethyl)pyrimidin-4-yl)amino)pyridin-2-yl)acetamide] were, in that order, at least 8.00 and 7.00 to 8.00.
In the case of `CC(=O)Nc1cc(Nc2ccnc(C(C)(F)F)n2)c(-c2cnc(N3C[C@H]4C[C@@H]3CO4)cn2)cn1` [Example 871, N-(5-(5-((1R,4R)-2-oxa-5-azabicyclo[2.2.1]heptan-5-yl)pyrazin-2-yl)-4-((2-(1,1-difluoroethyl)pyrimidin-4-yl)amino)pyridin-2-yl)acetamide], the figures for the negative-log IC50 (pIC50) in assay [1] and in assay [2] were at least 8.00 and 7.00 to 8.00, respectively.
`CC(=O)Nc1cc(Nc2ccnc(C(C)(F)F)n2)c(-c2cnc(N3CC4(CCOC4)C3)cn2)cn1` [Example 872, N-(5-(5-(6-oxa-2-azaspiro[3.4]octan-2-yl)pyrazin-2-yl)-4-((2-(1,1-difluoroethyl)pyrimidin-4-yl)amino)pyridin-2-yl)acetamide]: the pIC50 in assay [1] is at least 8.00; in assay [2], 7.00 to 8.00.
In the case of `COC1(C)CN(c2ccc(-c3cnc(NC(C)=O)cc3Nc3ccnc(C(C)(F)F)n3)nn2)C1` [Example 874, N-(4-((2-(1,1-difluoroethyl)pyrimidin-4-yl)amino)-5-(6-(3-methoxy-3-methylazetidin-1-yl)pyridazin-3-yl)pyridin-2-yl)acetamide], the pIC50 in assay [1] and in assay [2] was at least 8.00 in each case.
Consider `CC(=O)Nc1cc(Nc2ccnc(C(C)(F)F)n2)c(-c2ccc(N3C[C@@H]4C[C@H]3CO4)nn2)cn1` [Example 876, N-(5-(6-((1S,4S)-2-oxa-5-azabicyclo[2.2.1]heptan-5-yl)pyridazin-3-yl)-4-((2-(1,1-difluoroethyl)pyrimidin-4-yl)amino)pyridin-2-yl)acetamide], for which the negative-log IC50 (pIC50) in assay [1] and in assay [2] was at least 8.00 throughout.
Regarding `CC(=O)Nc1cc(Nc2ccnc(C(C)(F)F)n2)c(-c2ccc(N3CC4(CCOC4)C3)nn2)cn1` [Example 877, N-(5-(6-(6-oxa-2-azaspiro[3.4]octan-2-yl)pyridazin-3-yl)-4-((2-(1,1-difluoroethyl)pyrimidin-4-yl)amino)pyridin-2-yl)acetamide], the negative-log IC50 (pIC50) in assay [1] and in assay [2] was at least 8.00 in each case.
In the case of `CC(=O)Nc1cc(Nc2ccnc(C(C)(F)F)n2)c(-c2ccc(CN3CCCC3)cn2)cn1` [Example 878, N-(4′-((2-(1,1-difluoroethyl)pyrimidin-4-yl)amino)-5-(pyrrolidin-1-ylmethyl)-[2,3′-bipyridin]-6′-yl)acetamide], the pIC50 in assay [1] and in assay [2] was at least 8.00 each time.
`COCCN(C)Cc1ccc(-c2cnc(NC(C)=O)cc2Nc2ccnc(C(C)(F)F)n2)nc1` [Example 879, N-(4′-((2-(1,1-difluoroethyl)pyrimidin-4-yl)amino)-5-(((2-methoxyethyl)(methyl)amino)methyl)-[2,3′-bipyridin]-6′-yl)acetamide]: the pIC50 in assay [1] and in assay [2] was at least 8.00 each time.
Turning to `CC(=O)Nc1cc(Nc2ccnc(C(C)(F)F)n2)c(-c2ccc(CN3CCOC[C@H]3C)cn2)cn1` [Example 880, (R)-N-(4′-((2-(1,1-difluoroethyl)pyrimidin-4-yl)amino)-5-((3-methylmorpholino)methyl)-[2,3′-bipyridin]-6′-yl)acetamide], the pIC50 in assay [1] and in assay [2] was at least 8.00 throughout.
`COC1CCN(Cc2ccc(-c3cnc(NC(C)=O)cc3Nc3ccnc(C(C)(F)F)n3)nc2)C1` (stereo not drawn) [Example 881, N-(4′-((2-(1,1-difluoroethyl)pyrimidin-4-yl)amino)-5-((3-methoxypyrrolidin-1-yl)methyl)-[2,3′-bipyridin]-6′-yl)acetamide]: the pIC50 in assay [1] and in assay [2] was at least 8.00 in each case.
As for `COC1(C)CN(Cc2ccc(-c3cnc(NC(C)=O)cc3Nc3ccnc(C(C)(F)F)n3)nc2)C1` [Example 882, N-(4′-((2-(1,1-difluoroethyl)pyrimidin-4-yl)amino)-5-((3-methoxy-3-methylazetidin-1-yl)methyl)-[2,3′-bipyridin]-6′-yl)acetamide], the pIC50 in assay [1] and in assay [2] was at least 8.00 each time.
On to `CC(=O)Nc1cc(Nc2ccnc(C(C)(F)F)n2)c(-c2ccc(CNC3CCOCC3)cn2)cn1` [Example 883], for which the pIC50 in assay [1] and in assay [2] was at least 8.00 throughout.
Consider `CC(=O)Nc1cc(Nc2ccnc(C(C)(F)F)n2)c(-c2ccc(CN3C[C@@H]4C[C@H]3CO4)cn2)cn1` [Example 885, N-(5-(((1S,4S)-2-oxa-5-azabicyclo[2.2.1]heptan-5-yl)methyl)-4′-((2-(1,1-difluoroethyl)pyrimidin-4-yl)amino)-[2,3′-bipyridin]-6′-yl)acetamide], for which the pIC50 in assay [1] and in assay [2] was at least 8.00 each time.
In the case of `CC(=O)Nc1cc(Nc2ccnc(C(C)(F)F)n2)c(-c2ccc(CN3C[C@H]4C[C@@H]3CO4)cn2)cn1` [Example 886, N-(5-(((1R,4R)-2-oxa-5-azabicyclo[2.2.1]heptan-5-yl)methyl)-4′-((2-(1,1-difluoroethyl)pyrimidin-4-yl)amino)-[2,3′-bipyridin]-6′-yl)acetamide], the pIC50 in assay [1] and in assay [2] was at least 8.00 in each case.
For the compound `CC(=O)Nc1cc(Nc2ccnc(C(C)(F)F)n2)c(-c2cnc(N3C[C@H]4C[C@@H](C3)O4)cn2)cn1` [Example 887, N-(5-(5-((1R,5S)-6-oxa-3-azabicyclo[3.1.1]heptan-3-yl)pyrazin-2-yl)-4-((2-(1,1-difluoroethyl)pyrimidin-4-yl)amino)pyridin-2-yl)acetamide], the values for the negative logarithm of the IC50 (pIC50) in assay [1] and in assay [2] were at least 8.00 and 7.00 to 8.00, respectively.
The like results for `CC(=O)Nc1cc(Nc2ccnc(C(C)(F)F)n2)c(-c2cnc(N3CC4(COC4)C3)cn2)cn1` [Example 888, N-(5-(5-(2-oxa-6-azaspiro[3.3]heptan-6-yl)pyrazin-2-yl)-4-((2-(1,1-difluoroethyl)pyrimidin-4-yl)amino)pyridin-2-yl)acetamide] were, in that order, at least 8.00 and 6.00 to 7.00.
On the same counts, the results for `CC(=O)Nc1cc(Nc2ccnc(C(C)(F)F)n2)c(-c2ccc(CN3CC4(CCOC4)C3)cn2)cn1` [Example 889, N-(5-((6-oxa-2-azaspiro[3.4]octan-2-yl)methyl)-4′-((2-(1,1-difluoroethyl)pyrimidin-4-yl)amino)-[2,3′-bipyridin]-6′-yl)acetamide] are at least 8.00 and at least 8.00.
